These results are taken from the NIST ThermoML archive (doi:10.1016/j.fluid.2014.06.015).

Data set [1] in a line: refractive index (Na D-line) (dimensionless). Conditions: 298.15 K; 101.33 kPa; Liquid; Standard Abbe refractometry.
The conditions of data set [2]: 298.15 K; 101.33 kPa; Liquid; Vibrating tube method.

What is called refractive index is the speed of light in vacuum divided by its phase velocity in the sample. As a reminder, the mass density is mass per unit of volume.

The structures appear in SMILES notation. Numbers after ± are expanded uncertainties.

Take `CCC(C)(C)O` [2-methylbutan-2-ol]: the refractive index in data set [1] was 1.4026 ± 0.0005. Besides, the mass density in data set [2] was 804.21 ± 0.24 kg/m3. In the case of `CCC(C)O` (configuration not stated) [butan-2-ol], in data set [1], the refractive index was determined as 1.3936 ± 0.0005. For the same compound, the mass density in data set [2] worked out at 802.35 ± 0.13 kg/m3. For `OCC(O)CO` [glycerol], in that order: 1.4726 ± 0.0005 and 1258.52 ± 0.22 kg/m3. Regarding `O` [water], in data set [1], the refractive index turned out to be 1.3325 ± 0.0005.
